The record followed here is patent publication US20190077795A1, “ARGININE […] INHIBITORS AND USES THEREOF” (Epizyme, Inc., priority 2014, published 2019).

One assay concerns the target human PRMT8 (Homo sapiens, UniProt Q9NR22). In words: PRMT8 Biochemical Assay. Conditions: PRMT8 IC50 (uM), peptide substrate, 3H-SAM Flashplate assay.
For assay [1], the system named is mono-methyl arginine in RKO cells. In words: RKO Methylation Assay, In Cell Western (ICW). The assay is classed as cell-based. Conditions: 72 hours.
For a further assay, the target named is T1, human PRMT1 (Homo sapiens, UniProt Q99873).
T1 construct: GST-tagged PRMT1; made in house; host or cells: High Five insect cells (baculovirus, pFastBac1)
T1 sequence (Q99873 with tags, fused parts or gaps): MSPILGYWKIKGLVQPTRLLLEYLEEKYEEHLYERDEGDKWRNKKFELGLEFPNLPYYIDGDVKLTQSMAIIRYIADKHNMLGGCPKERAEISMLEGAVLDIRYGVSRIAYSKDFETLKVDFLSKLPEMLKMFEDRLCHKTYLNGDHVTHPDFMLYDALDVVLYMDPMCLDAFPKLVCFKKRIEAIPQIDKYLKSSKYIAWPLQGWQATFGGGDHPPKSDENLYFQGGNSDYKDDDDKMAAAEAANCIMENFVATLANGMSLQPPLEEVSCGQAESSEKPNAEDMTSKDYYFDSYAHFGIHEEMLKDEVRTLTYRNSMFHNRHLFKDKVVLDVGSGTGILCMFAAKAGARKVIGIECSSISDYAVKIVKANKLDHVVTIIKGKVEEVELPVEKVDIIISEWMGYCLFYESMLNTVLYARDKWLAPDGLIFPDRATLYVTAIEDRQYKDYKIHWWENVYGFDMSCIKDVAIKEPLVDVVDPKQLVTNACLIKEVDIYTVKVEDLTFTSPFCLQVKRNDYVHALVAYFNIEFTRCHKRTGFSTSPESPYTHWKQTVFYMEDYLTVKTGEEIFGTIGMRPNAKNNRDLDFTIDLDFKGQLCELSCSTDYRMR
Briefly: PRMT1 Biochemical Assay. Conditions: peptide substrate, 3H-SAM Flashplate assay; read-out: PRMT1 IC50. The procedure, abridged: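 GST-tagged PRMT1 from baculovirus-infected cells, preincubated with compounds 30 min at room temperature in 20 mM Bicine pH 7.6, 1 mM TCEP, 0.005% BSG, 0.002% Tween 20. Reaction started with ³H-SAM plus biotinylated peptide, stopped with 300 µM cold SAM.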

The next assay deals with T2, human PRMT6 (Homo sapiens, UniProt Q96LA8).
T2 construct: Flag-PRMT6-His; made in house; host or cells: HEK 293F cells (BacMam baculovirus, pFastBacMam)
T2 sequence (Q96LA8 with tags, fused parts or gaps): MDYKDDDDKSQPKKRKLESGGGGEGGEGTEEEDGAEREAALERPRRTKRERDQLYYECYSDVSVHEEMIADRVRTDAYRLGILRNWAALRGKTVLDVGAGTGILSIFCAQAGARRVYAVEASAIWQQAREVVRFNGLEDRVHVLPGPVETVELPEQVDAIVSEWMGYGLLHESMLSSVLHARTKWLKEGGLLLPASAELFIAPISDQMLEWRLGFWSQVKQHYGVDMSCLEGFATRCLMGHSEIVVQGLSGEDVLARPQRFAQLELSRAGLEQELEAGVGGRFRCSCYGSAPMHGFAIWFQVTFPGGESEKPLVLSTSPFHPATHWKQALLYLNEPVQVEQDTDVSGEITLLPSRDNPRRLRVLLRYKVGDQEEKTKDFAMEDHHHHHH
Briefly: PRMT6 Biochemical Assay.

[2] abbreviates: peptide substrate, 3H-SAM Flashplate assay, read-out: PRMT6 IC50.

Read-outs that look alike come from different tables or passages of the source. Bounds are passed on as bounds.

Chain of human PRMT8 (Q9NR22 whole entry): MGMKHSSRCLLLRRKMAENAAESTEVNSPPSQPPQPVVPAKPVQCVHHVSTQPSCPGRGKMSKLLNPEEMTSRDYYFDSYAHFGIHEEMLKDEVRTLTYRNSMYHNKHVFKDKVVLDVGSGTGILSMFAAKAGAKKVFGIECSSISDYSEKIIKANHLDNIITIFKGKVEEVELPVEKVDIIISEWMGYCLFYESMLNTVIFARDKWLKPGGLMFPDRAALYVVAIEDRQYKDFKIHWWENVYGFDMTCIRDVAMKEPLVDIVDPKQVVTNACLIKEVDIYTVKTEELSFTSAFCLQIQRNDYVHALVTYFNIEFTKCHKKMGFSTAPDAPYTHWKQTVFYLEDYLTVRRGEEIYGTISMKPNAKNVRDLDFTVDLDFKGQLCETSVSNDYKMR
Excerpt for human PRMT8: S-adenosylmethionine (SAM), S-adenosylhomocysteine (SAH), bicine, Tween20, dimethylsulfoxide (DMSO), bovine skin gelatin (BSG), isopropyl-3-D-thiogalactopyranoside (IPTG), and Tris(2-carboxyethyl)phosphine hydrochloride solution (TCEP) were purchased from Sigma-Aldrich at the highest level of purity possible. ^3H-SAM was purchase from American Radiolabeled Chemicals with a specific activity of 80 Ci/mmol. 384-well streptavidin Flashplates were purchased from PerkinElmer.
E. coli (BL21(DE3) Gold, Stratagene) made competent by the CaCl2 method were transformed with the PRMT8 construct and ampicillin selection. Protein over-expression was accomplished by growing the PRMT8 expressing E. coli clone and inducing expression with 0.3 mM IPTG at 16° C. The culture was grown for 12 hours, harvested by centrifugation, and stored at −80° C. for purification.
GST-tagged PRMT8 was eluted with 50 mM Tris, 2 mM glutathione, pH 7.8. Pooled fractions were cleaved by thrombin (10U) and dialysed in buffer A. GST was removed by reloading the cleaved protein sample onto glutathione sepharose column and PRMT8 was collected in the flow-through fractions. PRMT8 was purified further by ceramic hydroxyapatite chromatography. The column was washed with 50 mM phosphate buffer, 100 mM NaCl, 5% glycerol, 5 mM β-mercaptoethanol, pH 7.8 and PRMT8 was eluted by 100 mM phosphate in the same buffer. Protein was concentrated and buffer was exchanged to 50 mM Tris, 300 mM NaCl, 10% glycerol, 5 mM β-mercaptoethanol, pH 7.8 by ultrafiltration.
General Procedure for PRMT8 Enzyme Assays on Peptide Substrates.
The assays were all performed in a buffer consisting of 20 mM Bicine (pH=7.6), 1 mM TCEP, 0.005% BSG, and 0.002% Tween 20, prepared on the day of use. […] DMSO (1 ul) was added to Columns 11, 12, 23, 24, rows A-H for the maximum signal control and 1 ul of SAH, a known product and inhibitor of PRMT8, was added to columns 11, 12, 23, 24, rows I-P for the minimum signal control. A cocktail (40 ul) containing the PRMT8 enzyme was added by Multidrop Combi (Thermo-Fisher). The compounds were allowed to incubate with PRMT8 for 30 min at room temperature, then a cocktail (10 ul) containing ^3H-SAM and peptide was added to initiate the reaction (final volume=51 ul). […] The assays were stopped by the addition of non-radiolabeled SAM (10 ul) to a final concentration of 400 uM, which dilutes the ^3H-SAM to a level where its incorporation into the peptide substrate is no longer detectable. 50 ul of the reaction in the 384-well polypropylene plate was then transferred to a 384-well Flashplate and the biotinylated peptides were allowed to bind to the streptavidin surface for at least 1 hour before being washed once with 0.1% Tween20 in a Biotek ELx405 plate washer. The plates were then read in a PerkinElmer TopCount plate reader to measure the quantity of ^3H-labeled peptide bound to the Flashplate surface, measured as disintegrations per minute (dpm) or alternatively, referred to as counts per minute (cpm).
Where dpm=disintegrations per minute, cmpd=signal in assay well, and min and max are the respective minimum and maximum signal controls.
Where top and bottom are the normally allowed to float, but may be fixed at 100 or 0 respectively in a 3-parameter fit. The Hill Coefficient normally allowed to float but may also be fixed at 1 in a 3-parameter fit. Y is the % inhibition and X is the compound concentration.

By IC50 is commonly meant the concentration that gives 50% inhibition. Turning to `CNCCN(C)Cc1c[nH]nc1-c1ccc(OC2CCC(OC(C)C)CC2)cc1` (centres unmarked) [Compound 89], the concentration for half-maximal inhibition (IC50) came out at 0.0475 µM at human PRMT8, 23.1 nM at human PRMT1 and 0.0251 µM on human PRMT6 (setting [2]). Further, in assay [1], the “ICW EC30” value came out at 0.4491 µM.
Consider `CNCCN(C)Cc1c[nH]nc1-c1ccc(OCCOc2cccnn2)cc1` [Compound 90], for which the IC50 was found to be 0.117 µM at human PRMT8, 24.2 nM on human PRMT1 and 0.0199 µM at human PRMT6 (setting [2]). The “ICW EC30” value in assay [1] turned out to be 2.491 µM.
With `CNCCN(C)Cc1c[nH]nc1-c1ccc(OCC2COC2)cc1` [Compound 91], the IC50 against human PRMT8 came to 0.282 µM; at human PRMT1, 24.7 nM; on human PRMT6 (setting [2]), 0.0322 µM. In addition, in assay [1], the “ICW EC30” value was determined as 3.058 µM.
As for `CNCCN(C)Cc1c[nH]nc1-c1ccc(S(C)(=O)=O)cc1` [Compound 92], the IC50 at human PRMT8 amounted to 0.043 µM; on human PRMT1, 24.7 nM; at human PRMT6 (setting [2]) it was 0.0309 µM. For the same compound, the “ICW EC30” value in assay [1] amounted to 2.126 µM.
For `CNCCN(C)Cc1c[nH]nc1-c1cc(OCCC(C)(C)O)cc(C(F)(F)F)c1` [Compound 93] the same measures were 0.326 µM, 24.8 nM, 3.38 µM and 4.55 µM.
The matching figures for `COCCOc1cc(-c2n[nH]cc2CN(C)CCN)cc(C(F)(F)F)c1` [Compound 94]: 0.158 µM, 25.5 nM, 0.823 µM and 6.823 µM.
In the case of `CNCCN(C)Cc1c[nH]nc1-c1cc(OCCOC)cc(C(C)C)c1` [Compound 95], the results for the IC50 at human PRMT8, at human PRMT1 and on human PRMT6 (setting [2]) were 0.0843 µM, 25.8 nM and 0.771 µM, respectively. Moreover, the “ICW EC30” value in assay [1] amounted to 0.726 µM.
On to `CNCCN(C)Cc1c[nH]nc1-c1cc(OCCOC)cc(OC(F)(F)F)c1` [Compound 96], for which the half-inhibitory concentration (IC50) amounted to 0.108 µM at human PRMT8, 26.7 nM at human PRMT1 and 5.13 µM on human PRMT6 (setting [2]). Besides, the “ICW EC30” value in assay [1] was 1.762 µM.
For the compound `CNCCN(C)Cc1cnn(CCOC)c1-c1ccc(OC(C)C)cc1` [Compound 97], the IC50 at human PRMT8 was determined as 0.0601 µM; on human PRMT1, 28.2 nM; on human PRMT6 (PRMT6 IC50 (uM)), 0.106 µM. In addition, the “ICW EC30” value in assay [1] came out at 1.994 µM.
As to `CNCCN(C)Cc1c[nH]nc1-c1ccc(OC2CCC(OCCOC)CC2)cc1` (centres unmarked) [Compound 98], the concentration for half-maximal inhibition (IC50) on human PRMT8 came to 0.113 µM; on human PRMT1, 28.5 nM; on human PRMT6 (setting [2]), 0.0289 µM. In assay [1], the “ICW EC30” value was found to be 0.8685 µM.
In the case of `CNCCN(C)Cc1c[nH]nc1-c1ccc(N2CCCC2=O)cc1` [Compound 99], the IC50 at human PRMT8 came out at 0.127 µM; at human PRMT1 it was 29.7 nM; on human PRMT6 (setting [2]), 0.0633 µM. The “ICW EC30” value in assay [1] was found to be 3.944 µM.
`CNCCN(C)Cc1c[nH]nc1-c1cc(C(=O)NCCOC)cc(C(F)(F)F)c1` [Compound 101]: the concentration for half-maximal inhibition (IC50) against human PRMT8 came to 0.342 µM; at human PRMT1, 30.9 nM; on human PRMT6 (setting [2]), 2.66 µM. For the same compound, the “ICW EC30” value in assay [1] is 11.123 µM.
For `CNCCN(C)Cc1c[nH]nc1-c1ccc(N(C)CC(C)C)cc1` [Compound 102], the concentration for half-maximal inhibition (IC50) on human PRMT8 turned out to be 0.0819 µM; at human PRMT1 it was 31.9 nM; against human PRMT6 (PRMT6 IC50 (uM)) it was 0.236 µM. Besides, the “ICW EC30” value in assay [1] is 1.057 µM.
As to `CNCCN(C)Cc1c[nH]nc1-c1cc(F)c(OCCOC)c(C(F)(F)F)c1` [Compound 103], the results for the IC50 at human PRMT8, at human PRMT1 and at human PRMT6 (setting [2]) were 0.0421 µM, 33.3 nM and 0.0274 µM, respectively. The “ICW EC30” value in assay [1] was 0.85 µM.
Regarding `CNCCN(C)Cc1c[nH]nc1-c1cc(OCC2CCOC2)cc(C(F)(F)F)c1` (centres unmarked) [Compound 104], the 50% inhibitory concentration (IC50) was determined as 0.226 µM against human PRMT8, 33.3 nM on human PRMT1 and 2.9 µM at human PRMT6 (PRMT6 IC50 (uM)). In assay [1], the “ICW EC30” value turned out to be 1.467 µM.
For `CCOCC(C)(C)c1ccc(-c2n[nH]cc2CN(C)CCNC)cc1` [Compound 105] the same measures were 0.106 µM, 34 nM, 0.0559 µM and 2.748 µM.
In the case of `CCC(CO)Oc1cc(-c2n[nH]cc2CN(C)CCNC)cc(C(F)(F)F)c1` (centres unmarked) [Compound 106], the IC50 at human PRMT8 worked out at 0.201 µM; at human PRMT1, 34 nM; at human PRMT6 (setting [2]), 3.51 µM. For the same compound, in assay [1], the “ICW EC30” value was 3.7 µM.
For `CNCCN(C)Cc1c[nH]nc1-c1cc(OC)c(CC(C)C)c(OC)c1` [Compound 108], the half-maximal inhibitory concentration (IC50) was 0.0712 µM against human PRMT8, 35.7 nM on human PRMT1 and 0.824 µM against human PRMT6 (PRMT6 IC50 (uM)). Further, the “ICW EC30” value in assay [1] was found to be 2.967 µM.
As for `CNCCN(C)Cc1c[nH]nc1-c1cc(OCCOC)cc(C(C)(C)C)c1` [Compound 109], the results for the half-maximal inhibitory concentration (IC50) on human PRMT8, at human PRMT1 and at human PRMT6 (setting [2]) were 0.203 µM, 36.1 nM and 7.12 µM, respectively. Moreover, the “ICW EC30” value in assay [1] amounted to 1.928 µM.
For `CNCCN(C)Cc1c[nH]nc1-c1ccc(N(C)C2CCOCC2)cc1` [Compound 111] the same measures were 0.252 µM, 36.7 nM, 0.955 µM and 1.04 µM.
`CCC(CC)Oc1ccc(-n2ncc(C)c2CN(C)CCNC)cc1` [Compound 114]: the IC50 was 0.0836 µM on human PRMT8, 38.1 nM on human PRMT1 and 0.59 µM on human PRMT6 (setting [2]). Moreover, the “ICW EC30” value in assay [1] stood at 1.855 µM.
`CNCCN(C)Cc1c[nH]nc1-c1cc(F)c(OCC2CCOCC2)c(C(F)(F)F)c1` [Compound 116]: the IC50 on human PRMT8 is 0.118 µM; on human PRMT1, 39.1 nM; at human PRMT6 (PRMT6 IC50 (uM)), 0.0184 µM. For the same compound, the “ICW EC30” value in assay [1] was determined as 3.806 µM.
For the compound `CNCCN(C)Cc1c[nH]nc1-c1ccc(N(C)C2CCOCC2)nc1` [Compound 117], the half-maximal inhibitory concentration (IC50) is 0.317 µM against human PRMT8, 39.2 nM at human PRMT1 and 2.32 µM at human PRMT6 (setting [2]). In addition, in assay [1], the “ICW EC30” value is 8.433 µM.
As for `CNCCN(C)Cc1c[nH]nc1-c1ccc(OC(CO)CC(C)C)cc1` (centres unmarked) [Compound 118], the IC50 came out at 0.0955 µM on human PRMT8, 41.2 nM on human PRMT1 and 0.0342 µM at human PRMT6 (setting [2]). The “ICW EC30” value in assay [1] was 1.175 µM.
The matching figures for `CNCCN(C)Cc1c[nH]nc1-c1ccc(OC2CCOCC2)nc1` [Compound 119]: 0.123 µM, 41.5 nM, 0.0329 µM and 1.292 µM.
For `CNCCN(C)Cc1c[nH]nc1-c1ccc(OCCOC)nc1` [Compound 121], the IC50 was found to be 0.163 µM against human PRMT8, 42.3 nM on human PRMT1 and 0.0886 µM against human PRMT6 (PRMT6 IC50 (uM)). Moreover, in assay [1], the “ICW EC30” value amounted to 1.472 µM.
On to `CCOCC(C)(C)c1cc(OCCOC)cc(-c2n[nH]cc2CN(C)CCNC)c1` [Compound 122], for which the IC50 on human PRMT8 was 0.371 µM; at human PRMT1, 43 nM; at human PRMT6 (setting [2]) it was greater than 10 µM. In addition, in assay [1], the “ICW EC30” value came to 6.626 µM.
The matching figures for `CNCCN(C)Cc1c[nH]nc1-c1cc(OC2CCOCC2)cc(C(F)(F)F)c1` [Compound 123]: 0.376 µM, 43.9 nM, 1.47 µM and 18.364 µM.
For the compound `CN(CCN)Cc1c[nH]nc1-c1ccc(N2CCOCC2)cc1` [Compound 124], the half-maximal inhibitory concentration (IC50) on human PRMT8 was 0.413 µM; at human PRMT1, 44.3 nM; on human PRMT6 (setting [2]), 0.107 µM. In assay [1], the “ICW EC30” value turned out to be 3.978 µM.
On to `CNCCN(C)Cc1c[nH]nc1-c1ccc(OCCC(O)CO)cc1` (centres unmarked) [Compound 125], for which the concentration for half-maximal inhibition (IC50) amounted to 0.269 µM at human PRMT8, 45.5 nM at human PRMT1 and 0.0548 µM at human PRMT6 (setting [2]). Also, the “ICW EC30” value in assay [1] was found to be 10.45 µM.
`CNCCN(C)Cc1cnn(C)c1-c1cccc(OC2CC2)c1` [Compound 126]: the values for the IC50 against human PRMT8, on human PRMT1 and on human PRMT6 (setting [2]) were 0.0446 µM, 45.5 nM and 0.0737 µM, respectively. The “ICW EC30” value in assay [1] stood at 1.272 µM.
For `CCN(c1ccc(-c2n[nH]cc2CN(C)CCNC)cn1)C1CCOCC1` [Compound 127] the same measures were 0.467 µM, 45.9 nM, 3.45 µM and 9.19 µM.
As for `CNCCN(C)Cc1c[nH]nc1-c1ccc(OCCCS(C)(=O)=O)cc1` [Compound 128], the IC50 at human PRMT8 is 0.131 µM; on human PRMT1, 46.4 nM; on human PRMT6 (setting [2]) it was 0.0343 µM. Besides, in assay [1], the “ICW EC30” value worked out at 13.334 µM.
For the compound `CNCCN(C)Cc1cnn(C)c1-c1cccc(CC(C)C)c1` [Compound 129], the 50% inhibitory concentration (IC50) was 0.0877 µM on human PRMT8, 47.5 nM on human PRMT1 and 0.219 µM on human PRMT6 (setting [2]). The “ICW EC30” value in assay [1] is 7.415 µM.
The matching figures for `CNCCN(C)Cc1c[nH]nc1-c1cc(OCCCO)cc(C(F)(F)F)c1` [Compound 130]: 0.3 µM, 48.9 nM, 0.619 µM and 11.844 µM.
The matching figures for `CCOCC(C)c1cc(OCCOC)cc(-c2n[nH]cc2CN(C)CCNC)c1` (centres unmarked) [Compound 132]: 0.15 µM, 49.4 nM, greater than 10 µM and 3.608 µM.
`CNCCN(C)Cc1n[nH]cc1-c1cc(C(=O)C(C)C)cc(C(F)(F)F)c1` [Compound 134]: the half-inhibitory concentration (IC50) against human PRMT8 worked out at 0.168 µM; on human PRMT1, 121 nM; on human PRMT6 (setting [2]), 2.07 µM. The “ICW EC30” value in assay [1] is greater than 6.7 µM.
The matching figures for `CNCCN(C)Cc1c[nH]nc1-c1ccc(OCCOc2ccc(OC)cc2)cc1` [Compound 135]: 0.0336 µM, 5.85 nM, 0.00405 µM and 0.086 µM.
